Results as given in PubChem BioAssay (NCI).
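Each compound was tested at five concentrations against cells in 96-well plates for 48 hours. The concentration for full growth arrest is given as TGI.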

Experiments:
Test in all cases: inhibition of tumour cell growth, NCI panel, 48 h
NCI-H23 lung = tested on: NCI-H23 lung
786-0 renal = tested on: 786-0 renal
A549 NSCLC = tested on: A549 NSCLC
RPMI-8226 leukemia = tested on: RPMI-8226 leukemia
OVCAR-5 ovarian = tested on: OVCAR-5 ovarian
SNB-75 CNS = tested on: SNB-75 CNS
NCI/ADR-RES ovarian = tested on: NCI/ADR-RES ovarian
OVCAR-3 ovarian = tested on: OVCAR-3 ovarian
ACHN renal = tested on: ACHN renal
KM12 colon = tested on: KM12 colon
HOP-62 NSCLC = tested on: HOP-62 NSCLC
U251 CNS = tested on: U251 CNS
OVCAR-8 ovarian = tested on: OVCAR-8 ovarian
M14 melanoma = tested on: M14 melanoma
LOX IMVI melanoma = tested on: LOX IMVI melanoma
HCC-2998 colon = tested on: HCC-2998 colon
EKVX NSCLC = tested on: EKVX NSCLC
CAKI-1 renal = tested on: CAKI-1 renal
DU-145 prostate = tested on: DU-145 prostate
SN12C renal = tested on: SN12C renal
MOLT-4 leukemia = tested on: MOLT-4 leukemia
UACC-62 melanoma = tested on: UACC-62 melanoma
MDA-MB-231 breast = tested on: MDA-MB-231 breast
PC-3 prostate = tested on: PC-3 prostate
HT29 colon = tested on: HT29 colon
SNB-19 CNS = tested on: SNB-19 CNS
HL-60(TB) leukemia = tested on: HL-60(TB) leukemia
MDA-MB-435 = tested on: MDA-MB-435
SK-MEL-2 melanoma = tested on: SK-MEL-2 melanoma
SK-MEL-5 melanoma = tested on: SK-MEL-5 melanoma
HCT-15 colon = tested on: HCT-15 colon
K-562 leukemia = tested on: K-562 leukemia
SW-620 colon = tested on: SW-620 colon
HOP-92 NSCLC = tested on: HOP-92 NSCLC
UACC-257 melanoma = tested on: UACC-257 melanoma
CCRF-CEM leukemia = tested on: CCRF-CEM leukemia
TK-10 renal = tested on: TK-10 renal
HCT-116 colon = tested on: HCT-116 colon
NCI-H226 lung = tested on: NCI-H226 lung
RXF 393 renal = tested on: RXF 393 renal
MDA-N = tested on: MDA-N
IGROV1 ovarian = tested on: IGROV1 ovarian
SF-268 CNS = tested on: SF-268 CNS
NCI-H522 lung = tested on: NCI-H522 lung
COLO 205 colon = tested on: COLO 205 colon
SF-539 CNS = tested on: SF-539 CNS
A498 renal = tested on: A498 renal
SR leukemia = tested on: SR leukemia
OVCAR-4 ovarian = tested on: OVCAR-4 ovarian
SF-295 CNS = tested on: SF-295 CNS
UO-31 renal = tested on: UO-31 renal
NCI-H460 lung = tested on: NCI-H460 lung
HS 578T breast = tested on: HS 578T breast
T-47D breast = tested on: T-47D breast
BT-549 breast = tested on: BT-549 breast
MCF7 breast = tested on: MCF7 breast
SK-MEL-28 melanoma = tested on: SK-MEL-28 melanoma
SK-OV-3 ovarian = tested on: SK-OV-3 ovarian

## Cn1c(=O)c2c(nc3n(Cc4ccccc4)c(=O)c(Br)cn23)n(C)c1=O
NCI-H23 lung
  TGI: > 100 µM
786-0 renal
  TGI: > 100 µM
A549 NSCLC
  TGI: > 100 µM
RPMI-8226 leukemia
  TGI: > 100 µM
OVCAR-5 ovarian
  TGI: > 100 µM
SNB-75 CNS
  TGI: > 100 µM
NCI/ADR-RES ovarian
  TGI: > 100 µM
OVCAR-3 ovarian
  TGI: > 100 µM
ACHN renal
  TGI: > 100 µM
KM12 colon
  TGI: > 100 µM
HOP-62 NSCLC
  TGI: > 100 µM
U251 CNS
  TGI: > 100 µM
OVCAR-8 ovarian
  TGI: > 100 µM
M14 melanoma
  TGI: > 100 µM
LOX IMVI melanoma
  TGI: > 100 µM
HCC-2998 colon
  TGI: > 100 µM
EKVX NSCLC
  TGI: > 100 µM
CAKI-1 renal
  TGI: > 100 µM
DU-145 prostate
  TGI: > 100 µM
SN12C renal
  TGI: > 100 µM
MOLT-4 leukemia
  TGI: > 100 µM
UACC-62 melanoma
  TGI: > 100 µM
MDA-MB-231 breast
  TGI: > 100 µM
PC-3 prostate
  TGI: > 100 µM
HT29 colon
  TGI: > 100 µM
SNB-19 CNS
  TGI: > 100 µM
HL-60(TB) leukemia
  TGI: > 100 µM
MDA-MB-435
  TGI: > 100 µM
SK-MEL-2 melanoma
  TGI: > 100 µM
SK-MEL-5 melanoma
  TGI: > 100 µM
HCT-15 colon
  TGI: > 100 µM
K-562 leukemia
  TGI: > 100 µM
SW-620 colon
  TGI: > 100 µM
HOP-92 NSCLC
  TGI: > 100 µM
UACC-257 melanoma
  TGI: > 100 µM
CCRF-CEM leukemia
  TGI: > 100 µM
TK-10 renal
  TGI: > 100 µM
HCT-116 colon
  TGI: > 100 µM
NCI-H226 lung
  TGI: > 100 µM
RXF 393 renal
  TGI: > 100 µM
MDA-N
  TGI: > 100 µM
IGROV1 ovarian
  TGI: > 100 µM
SF-268 CNS
  TGI: > 100 µM
NCI-H522 lung
  TGI: > 100 µM
COLO 205 colon
  TGI: > 100 µM
SF-539 CNS
  TGI: > 100 µM
A498 renal
  TGI: > 100 µM
SR leukemia
  TGI: > 100 µM
OVCAR-4 ovarian
  TGI: > 100 µM
SF-295 CNS
  TGI: > 100 µM
UO-31 renal
  TGI: > 100 µM
NCI-H460 lung
  TGI: > 100 µM
HS 578T breast
  TGI: > 100 µM
T-47D breast
  TGI: > 100 µM
BT-549 breast
  TGI: > 100 µM
MCF7 breast
  TGI: > 100 µM
SK-MEL-28 melanoma
  TGI: > 100 µM

## C/C=C(/C)C(=O)O[C@H]1CCN2CC=C(COC(=O)[C@@](O)([C@H](C)OC)C(C)(C)O)[C@H]12
NCI-H23 lung
  TGI: > 100 µM
786-0 renal
  TGI: > 100 µM
A549 NSCLC
  TGI: > 100 µM
RPMI-8226 leukemia
  TGI: > 100 µM
OVCAR-5 ovarian
  TGI: > 100 µM
SNB-75 CNS
  TGI: > 100 µM
NCI/ADR-RES ovarian
  TGI: > 100 µM
OVCAR-3 ovarian
  TGI: > 100 µM
ACHN renal
  TGI: > 100 µM
KM12 colon
  TGI: > 100 µM
HOP-62 NSCLC
  TGI: > 100 µM
U251 CNS
  TGI: > 100 µM
OVCAR-8 ovarian
  TGI: > 100 µM
M14 melanoma
  TGI: > 100 µM
LOX IMVI melanoma
  TGI: > 100 µM
HCC-2998 colon
  TGI: > 100 µM
EKVX NSCLC
  TGI: > 100 µM
CAKI-1 renal
  TGI: > 100 µM
DU-145 prostate
  TGI: > 100 µM
SN12C renal
  TGI: > 100 µM
MOLT-4 leukemia
  TGI: > 100 µM
UACC-62 melanoma
  TGI: > 100 µM
MDA-MB-231 breast
  TGI: > 100 µM
PC-3 prostate
  TGI: > 100 µM
HT29 colon
  TGI: > 100 µM
SNB-19 CNS
  TGI: > 100 µM
HL-60(TB) leukemia
  TGI: > 100 µM
MDA-MB-435
  TGI: > 100 µM
SK-MEL-2 melanoma
  TGI: > 100 µM
SK-MEL-5 melanoma
  TGI: > 100 µM
HCT-15 colon
  TGI: > 100 µM
K-562 leukemia
  TGI: > 100 µM
SW-620 colon
  TGI: > 100 µM
HOP-92 NSCLC
  TGI: > 100 µM
UACC-257 melanoma
  TGI: > 100 µM
CCRF-CEM leukemia
  TGI: > 100 µM
TK-10 renal
  TGI: > 100 µM
HCT-116 colon
  TGI: > 100 µM
NCI-H226 lung
  TGI: > 100 µM
MDA-N
  TGI: > 100 µM
IGROV1 ovarian
  TGI: > 100 µM
SF-268 CNS
  TGI: > 100 µM
NCI-H522 lung
  TGI: > 100 µM
COLO 205 colon
  TGI: > 100 µM
SF-539 CNS
  TGI: > 100 µM
A498 renal
  TGI: > 100 µM
SR leukemia
  TGI: > 100 µM
OVCAR-4 ovarian
  TGI: > 100 µM
SF-295 CNS
  TGI: > 100 µM
UO-31 renal
  TGI: > 100 µM
HS 578T breast
  TGI: > 100 µM
T-47D breast
  TGI: > 100 µM
BT-549 breast
  TGI: > 100 µM
MCF7 breast
  TGI: > 100 µM
SK-MEL-28 melanoma
  TGI: > 100 µM
SK-OV-3 ovarian
  TGI: > 100 µM

## COC(=O)[C@]12CC[C@H]3CN(C(=O)OCc4ccccc4)[C@H]([C@H]31)[C@H](c1ccccc1)N2
NCI-H23 lung
  TGI: > 100 µM
786-0 renal
  TGI: > 100 µM
A549 NSCLC
  TGI: > 100 µM
RPMI-8226 leukemia
  TGI: > 100 µM
OVCAR-5 ovarian
  TGI: > 100 µM
SNB-75 CNS
  TGI: > 100 µM
NCI/ADR-RES ovarian
  TGI: > 100 µM
OVCAR-3 ovarian
  TGI: > 100 µM
ACHN renal
  TGI: > 100 µM
KM12 colon
  TGI: > 100 µM
HOP-62 NSCLC
  TGI: > 100 µM
U251 CNS
  TGI: > 100 µM
OVCAR-8 ovarian
  TGI: > 100 µM
M14 melanoma
  TGI: > 100 µM
LOX IMVI melanoma
  TGI: > 100 µM
HCC-2998 colon
  TGI: > 100 µM
EKVX NSCLC
  TGI: > 100 µM
CAKI-1 renal
  TGI: > 100 µM
DU-145 prostate
  TGI: > 100 µM
SN12C renal
  TGI: > 100 µM
MOLT-4 leukemia
  TGI: > 100 µM
UACC-62 melanoma
  TGI: > 100 µM
MDA-MB-231 breast
  TGI: > 100 µM
PC-3 prostate
  TGI: > 100 µM
HT29 colon
  TGI: > 100 µM
SNB-19 CNS
  TGI: > 100 µM
HL-60(TB) leukemia
  TGI: > 100 µM
MDA-MB-435
  TGI: > 100 µM
SK-MEL-2 melanoma
  TGI: > 100 µM
SK-MEL-5 melanoma
  TGI: 58.3 µM
HCT-15 colon
  TGI: > 100 µM
K-562 leukemia
  TGI: > 100 µM
SW-620 colon
  TGI: > 100 µM
HOP-92 NSCLC
  TGI: > 100 µM
UACC-257 melanoma
  TGI: > 100 µM
CCRF-CEM leukemia
  TGI: > 100 µM
TK-10 renal
  TGI: > 100 µM
HCT-116 colon
  TGI: > 100 µM
NCI-H226 lung
  TGI: > 100 µM
RXF 393 renal
  TGI: > 100 µM
MDA-N
  TGI: > 100 µM
IGROV1 ovarian
  TGI: > 100 µM
SF-268 CNS
  TGI: > 100 µM
NCI-H522 lung
  TGI: > 100 µM
COLO 205 colon
  TGI: > 100 µM
SF-539 CNS
  TGI: > 100 µM
A498 renal
  TGI: > 100 µM
SR leukemia
  TGI: > 100 µM
OVCAR-4 ovarian
  TGI: > 100 µM
SF-295 CNS
  TGI: > 100 µM
UO-31 renal
  TGI: > 100 µM
NCI-H460 lung
  TGI: > 100 µM
HS 578T breast
  TGI: > 100 µM
T-47D breast
  TGI: > 100 µM
BT-549 breast
  TGI: > 100 µM
MCF7 breast
  TGI: > 100 µM
SK-MEL-28 melanoma
  TGI: > 100 µM
SK-OV-3 ovarian
  TGI: > 100 µM
